Test results as given in patent publication US9636308B2, “High drug load buprenorphine microspheres and method of producing same” (Oakwood Laboratories LLC, priority 2013, dated 2017).

Assay: Solubility of buprenorphine in solvent systems by visual observation
Description: DCM was used as the main solvent and BzOH as the co-solvent.

## CO[C@@]12CC[C@@]3(C[C@@H]1[C@](C)(O)C(C)(C)C)[C@H]1Cc4ccc(O)c5c4[C@@]3(CCN1CC1CC1)[C@H]2O5.Cl [Buprenorphine (salt form), Buprenorphine hydrochloride]
DCM:BzOH 2:1 by weight versus DCM alone
  Increase of solubility by addition of BzOH to DCM: ~46 fold
Solvent DCM with benzyl alcohol co-solvent (33% by weight; 2:1 DCM:BzOH)
  Solubility: 0.083 g/g
Solvent DCM, no co-solvent
  Solubility: 0.0018 g/g
